The source of these data is patent publication US9226916B2, “Pyrrolidine derivatives” (HOFFMANN-LA ROCHE INC., priority 2009, dated 2016).

One assay concerns the target T1, recombinant human NK3 receptor (Homo sapiens, UniProt P29371).
T1 construct: expressed in transfected cells; host or cells: HEK293 cells, transient expression; membranes
T1 sequence (P29371 1-465): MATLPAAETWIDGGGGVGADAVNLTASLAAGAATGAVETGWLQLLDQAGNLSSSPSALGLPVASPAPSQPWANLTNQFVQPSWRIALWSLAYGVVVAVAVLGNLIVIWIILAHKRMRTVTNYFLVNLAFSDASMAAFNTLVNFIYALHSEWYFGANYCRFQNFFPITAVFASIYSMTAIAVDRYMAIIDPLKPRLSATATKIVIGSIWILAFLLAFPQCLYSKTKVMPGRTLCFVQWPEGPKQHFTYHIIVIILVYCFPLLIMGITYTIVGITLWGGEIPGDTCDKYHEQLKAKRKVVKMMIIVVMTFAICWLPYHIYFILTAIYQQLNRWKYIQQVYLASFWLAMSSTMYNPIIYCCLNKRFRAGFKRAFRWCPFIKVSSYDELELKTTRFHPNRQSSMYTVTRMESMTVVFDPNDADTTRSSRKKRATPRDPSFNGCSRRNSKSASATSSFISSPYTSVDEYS
Nature of the assay: [3H]SR142801 competition binding assay.
Conditions: not given
As a reminder, the Ki is the dissociation constant of the complex between target and ligand, obtained from inhibition or displacement. `CN(C(=O)Oc1ccccc1)[C@H]1CN(C(=O)C2CCN(CC3CC3)CC2)C[C@@H]1c1ccc(Cl)c(Cl)c1` (racemic) [Example 7, rac-[(3R,4S)-1-(1-Cyclopropylmethyl-piperidine-4-carbonyl)-4-(3,4-dichloro-phenyl)-pyrrolidin-3-yl]-methyl-carbamic acid phenyl ester]: the inhibitory constant (Ki) is 9.6 nM.
Turning to `CN(C(=O)Oc1ccc(F)cc1)[C@@H]1CN(C(=O)C2CCN(c3ccc(Cl)cn3)CC2)C[C@H]1c1ccc(Cl)c(F)c1` [Example 312, [(3S,4R)-4-(4-Chloro-3-fluoro-phenyl)-1-(5′-chloro-3,4,5,6-tetrahydro-2H-[1,2′]bipyridinyl-4-carbonyl)-pyrrolidin-3-yl]-methyl-carbamic acid 4-fluoro-phenyl ester], the Ki was determined as 0.4 nM.
Turning to `CN(C(=O)OCC(C)(C)C)[C@H]1CN(C(=O)C2CCN(C(=O)C3(C)CC3)CC2)C[C@@H]1c1ccc(Cl)c(Cl)c1` (racemic) [Example 22, rac-{(3R,4S)-4-(3,4-Dichloro-phenyl)-1-[1-(1-methyl-cyclopropanecarbonyl)-piperidine-4-carbonyl]-pyrrolidin-3-yl}-methyl-carbamic acid 2,2-dimethyl-propyl ester], the inhibition constant (Ki) came out at 16.9 nM.
On the same count and under the same terms, next, `CC(=O)c1ccc(N2CCC(C(=O)N3C[C@@H](N(C)C(=O)Oc4ccc(F)cc4)[C@H](c4ccc(Cl)cc4)C3)CC2)nc1` [Example 182, [(3S,4R)-1-(5′-Acetyl-3,4,5,6-tetrahydro-2H-[1,2′]bipyridinyl-4-carbonyl)-4-(4-chloro-phenyl)-pyrrolidin-3-yl]-methyl-carbamic acid 4-fluoro-phenyl ester]: 2 nM; `CN(C(=O)Oc1ccc(F)cc1)[C@H]1CN(C(=O)C2CCN(c3ccc(C#N)cn3)CC2)C[C@@H]1c1ccc(F)cc1` [Example 132, [(3R,4S)-1-(5′-Cyano-3,4,5,6-tetrahydro-2H-[1,2′]bipyridinyl-4-carbonyl)-4-(4-fluoro-phenyl)-pyrrolidin-3-yl]-methyl-carbamic acid 4-fluoro-phenyl ester]: 55.6 nM.
Turning to `Cc1cccc(OC(=O)N(C)[C@@H]2CN(C(=O)C3CCN(c4ccc(C#N)cn4)CC3)C[C@H]2c2ccc(Cl)cc2)c1` [Example 230, [(3S,4R)-4-(4-Chloro-phenyl)-1-(5′-cyano-3,4,5,6-tetrahydro-2H-[1,2′]bipyridinyl-4-carbonyl)-pyrrolidin-3-yl]-methyl-carbamic acid m-tolyl ester], the Ki amounted to 2.7 nM.
Same read-out and setting: next, `CN(C(=O)Oc1ccc(F)cc1)[C@H]1CN(C(=O)CCN2CCCC2=O)C[C@@H]1c1ccc(Cl)c(Cl)c1` (racemic) [Example 56, rac-{(3R,4S)-4-(3,4-Dichloro-phenyl)-1-[3-(2-oxo-pyrrolidin-1-yl)-propionyl]-pyrrolidin-3-yl}-methyl-carbamic acid 4-fluoro-phenyl ester]: 61.3 nM; `CC1CC1COC(=O)N(C)[C@H]1CN(C(=O)C2CCN(C(=O)C3(C)CC3)CC2)C[C@@H]1c1ccc(Cl)c(Cl)c1` (mixture of isomers) [Example 92, rac-{(3R,4S)-4-(3,4-Dichloro-phenyl)-1-[1-(1-methyl-cyclopropanecarbonyl)-piperidine-4-carbonyl]-pyrrolidin-3-yl}-methyl-carbamic acid 2-methyl-cyclopropylmethyl ester]: 2.3 nM.

The assay is the same for the next values; noted with them: hNK-3 receptor affinity; membranes from HEK293 cells transiently expressing recombinant human NK3 receptor; [3H]SR142801; Cheng-Prussoff; read-out: Data Ki.
As to `COCCCOC(=O)N(C)[C@@H]1CN(C(=O)C2CCN(c3ccc(C#N)cn3)CC2)C[C@H]1c1ccc(Cl)cc1` [Example 216, [(3S,4R)-4-(4-Chloro-phenyl)-1-(5′-cyano-3,4,5,6-tetrahydro-2H-[1,2′]bipyridinyl-4-carbonyl)-pyrrolidin-3-yl]-methyl-carbamic acid 3-methoxy-propyl ester], the Ki worked out at 53.6 nM.
`CN(C(=O)OCCCC(F)(F)F)[C@H]1CN(C(=O)C2CCN(C(=O)C3(C)CC3)CC2)C[C@@H]1c1ccc(Cl)cc1` [Example 100, {(3R,4S)-4-(4-Chloro-phenyl)-1-[1-(1-methyl-cyclopropanecarbonyl)-piperidine-4-carbonyl]-pyrrolidin-3-yl}-methyl-carbamic acid 4,4,4-trifluoro-butyl ester]: the Ki came out at 12.2 nM.
